The values below are quoted from earlier work in patent US11000512B2, “Use of DDX3 inhibitors as antiproliferative agents” (AZIENDA OSPEDALIERA UNIVERSITARIA SENESE, priority 2016, dated 2021).

Molecules are shown by their SMILES. pEC50, pKi: −log10 of the molar value.

For one series, the system named is HIV. The following applies: viral load of PBMCs infected with HIV; cited from earlier work.
For another series, the target named is ATPase activity of DDX3 (Homo sapiens, UniProt O00571). The following applies: Maga et al. 2008; cited from earlier work.
The next series concerns HIV-1 (IIIB). The following applies: HIV-1 (IIIB) in MT4-cells; cited from earlier work.
A further series has as its system MOLT-4 T-lymphocytic. The following applies: cited from earlier work.

Sequence of ATPase activity of DDX3 (O00571 whole entry): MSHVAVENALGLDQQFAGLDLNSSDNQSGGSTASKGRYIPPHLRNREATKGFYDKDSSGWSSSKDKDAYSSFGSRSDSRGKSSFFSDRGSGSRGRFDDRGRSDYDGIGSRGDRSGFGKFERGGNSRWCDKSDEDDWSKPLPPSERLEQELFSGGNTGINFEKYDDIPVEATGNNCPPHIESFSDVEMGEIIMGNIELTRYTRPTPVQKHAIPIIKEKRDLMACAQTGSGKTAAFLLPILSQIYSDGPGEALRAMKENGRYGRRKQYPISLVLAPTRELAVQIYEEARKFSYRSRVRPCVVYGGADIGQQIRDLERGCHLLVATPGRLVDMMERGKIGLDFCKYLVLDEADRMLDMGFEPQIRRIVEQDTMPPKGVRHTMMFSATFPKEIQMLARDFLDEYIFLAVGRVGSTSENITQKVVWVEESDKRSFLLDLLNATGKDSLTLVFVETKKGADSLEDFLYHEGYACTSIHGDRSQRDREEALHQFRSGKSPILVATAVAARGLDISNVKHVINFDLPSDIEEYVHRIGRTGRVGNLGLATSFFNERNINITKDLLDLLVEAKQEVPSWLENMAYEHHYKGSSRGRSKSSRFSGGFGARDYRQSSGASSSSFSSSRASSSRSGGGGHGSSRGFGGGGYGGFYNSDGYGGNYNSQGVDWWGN

A word on the pEC50: it is the negative decadic logarithm of the EC50, by convention in mol/L. As for `Cc1ccccc1NC(=O)Nc1cccc([N+](=O)[O-])c1` [EI01D], the pEC50 in the series with HIV is 5.00.
The pKi is the negative decadic logarithm of the Ki, by convention in mol/L. For `O=C(CN1C(=O)/C(=C/c2cccc(Br)c2)SC1=S)Nc1ccccc1O` [FE15], the negative logarithm of the Ki (pKi) at ATPase activity of DDX3 is 5.27. Besides, the pEC50 in the series on HIV-1 (IIIB) is 4.06. The CC50 in the series on MOLT-4 T-lymphocytic was more than 200 µM.
